One assay has as its target T1, human V2 receptor (Homo sapiens, UniProt P30518).
T1 construct: expressed in transfected cells; host or cells: CHO K1 (ATCC) expressing firefly luciferase under a CRE-responsive promoter
Nature of the assay: Cellular in vitro assay for determining vasopressin receptor activity, V2 receptor cell line (CHO, CRE-luciferase). In kind it is cell-based. The note with it: CHO cell line transfected with human V2 receptor; [Arg8]-vasopressin at EC50 concentration; read-out: IC50 hV2.

The next assay addresses T2, human V1a receptor (Homo sapiens, UniProt P37288).
T2 construct: expressed in transfected cells; host or cells: CHO K1 (ATCC), also stably transfected with a modified aequorin
Nature of the assay: Cellular in vitro assay for determining vasopressin receptor activity, V1a receptor cell line (CHO, aequorin luminescence). The settings on record: for IC50: CHO cell line transfected with human V1a receptor, [Arg]-vasopressin at EC50 concentration, read-out: IC50 hV1a; for ratio IC50 hV2/hV1a: selectivity ratio IC50 hV2 / IC50 hV1a. The class given is cell-based. A digest of the protocol:
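Luminescence from reconstituted aequorin, reporting intracellular calcium release, was measured immediately after adding [Arg]-vasopressin at EC50 concentration to CHO K1 cells pretreated 10 minutes with graded compound concentrations. Inhibition gave IC50 values.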

From patent US11173151B2, “Substituted triazole derivatives and uses thereof” (BAYER AKTIENGESELLSCHAFT, priority 2017, dated 2021) come the findings set out here.

Broadly, the IC50 is the midpoint of a concentration-inhibition curve.

T1 sequence (P30518 whole entry): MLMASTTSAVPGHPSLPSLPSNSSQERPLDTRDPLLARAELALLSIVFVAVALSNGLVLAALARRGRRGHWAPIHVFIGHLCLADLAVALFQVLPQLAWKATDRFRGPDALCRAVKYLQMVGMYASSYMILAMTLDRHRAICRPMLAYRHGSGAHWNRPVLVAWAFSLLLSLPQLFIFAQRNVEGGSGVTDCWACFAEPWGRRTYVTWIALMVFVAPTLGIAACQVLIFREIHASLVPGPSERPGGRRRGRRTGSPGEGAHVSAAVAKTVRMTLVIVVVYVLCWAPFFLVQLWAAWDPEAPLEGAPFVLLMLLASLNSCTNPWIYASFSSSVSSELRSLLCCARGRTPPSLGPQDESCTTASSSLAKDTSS
T2 sequence (P37288 whole entry): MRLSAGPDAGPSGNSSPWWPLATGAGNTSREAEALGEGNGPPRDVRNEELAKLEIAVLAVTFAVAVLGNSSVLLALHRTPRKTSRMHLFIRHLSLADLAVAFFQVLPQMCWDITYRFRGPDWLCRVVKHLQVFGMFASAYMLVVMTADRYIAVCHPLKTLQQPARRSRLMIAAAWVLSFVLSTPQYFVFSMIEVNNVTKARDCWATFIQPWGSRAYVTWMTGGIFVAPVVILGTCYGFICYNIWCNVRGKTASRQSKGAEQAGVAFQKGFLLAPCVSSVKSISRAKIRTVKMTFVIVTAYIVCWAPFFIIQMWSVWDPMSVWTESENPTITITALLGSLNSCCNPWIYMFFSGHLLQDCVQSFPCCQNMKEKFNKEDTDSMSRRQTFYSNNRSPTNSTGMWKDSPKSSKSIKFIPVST

As for `CC1(NC(=O)c2cccnc2-n2nc(Cn3nc(-c4ccc(Cl)cc4)n(C[C@H](O)C(F)(F)F)c3=O)nc2C(=O)N2CCNC(=O)C2)CC1` [Example 525, 2-{3-({3-(4-Chlorophenyl)-5-oxo-4-[(2S)-3,3,3-trifluoro-2-hydroxypropyl]-4,5-dihydro-1H-1,2,4-triazol-1-yl}methyl)-5-[(3-oxopiperazin-1-yl)carbonyl]-1H-1,2,4-triazol-1-yl}-N-(1-methylcyclopropyl)pyridine-3-carboxamide], the IC50 at human V2 receptor was determined as 6550 nM. Besides, on human V1a receptor, the IC50 came to 9400 nM and the “ratio IC50 hV2/hV1a” value was found to be 0.7.
With `O=C(NCC(F)(F)F)c1cccnc1-n1nc(Cn2nc(-c3ccc(Cl)cc3)n(C[C@H](O)C(F)(F)F)c2=O)nc1C(=O)N1CCS(=O)(=O)CC1` [Example 528, 2-{3-({3-(4-Chlorophenyl)-5-oxo-4-[(2S)-3,3,3-trifluoro-2-hydroxypropyl]-4,5-dihydro-1H-1,2,4-triazol-1-yl}methyl)-5-[(1,1-dioxidothiomorpholin-4-yl)carbonyl]-1H-1,2,4-triazol-1-yl}-N-(2,2,2-trifluoroethyl)pyridine-3-carboxamide], the IC50 at human V2 receptor was determined as 780 nM. Further, on human V1a receptor, the IC50 amounted to 75.5 nM and the “ratio IC50 hV2/hV1a” value worked out at 10.3.
As to `O=C(NCCC(F)(F)F)c1cccnc1-n1nc(Cn2nc(-c3ccc(Cl)cc3)n(C[C@H](O)C(F)(F)F)c2=O)nc1C(=O)N1CCS(=O)(=O)CC1` [Example 529, 2-{3-({3-(4-Chlorophenyl)-5-oxo-4-[(2S)-3,3,3-trifluoro-2-hydroxypropyl]-4,5-dihydro-1H-1,2,4-triazol-1-yl}methyl)-5-[(1,1-dioxidothiomorpholin-4-yl)carbonyl]-1H-1,2,4-triazol-1-yl}-N-(3,3,3-trifluoropropyl)pyridine-3-carboxamide], the IC50 at human V2 receptor was determined as 2900 nM. Also, on human V1a receptor, the IC50 came to 97.5 nM and the “ratio IC50 hV2/hV1a” value is given as 29.7.
`O=C(NC1CC1)c1cccnc1-n1nc(Cn2nc(-c3ccc(Cl)cc3)n(C[C@H](O)C(F)(F)F)c2=O)nc1C(=O)N1CCS(=O)(=O)CC1` [Example 530, 2-{3-({3-(4-Chlorophenyl)-5-oxo-4-[(2S)-3,3,3-trifluoro-2-hydroxypropyl]-4,5-dihydro-1H-1,2,4-triazol-1-yl}methyl)-5-[(1,1-dioxidothiomorpholin-4-yl)carbonyl]-1H-1,2,4-triazol-1-yl}-N-cyclopropylpyridine-3-carboxamide]: the IC50 at human V2 receptor came to 5250 nM. At human V1a receptor, the IC50 amounted to 530 nM and the “ratio IC50 hV2/hV1a” value is recorded as 9.9.
For `CC1(NC(=O)c2cccnc2-n2nc(Cn3nc(-c4ccc(Cl)cc4)n(C[C@H](O)C(F)(F)F)c3=O)nc2C(=O)N2CCS(=O)(=O)CC2)CC1` [Example 531, 2-{3-({3-(4-Chlorophenyl)-5-oxo-4-[(2S)-3,3,3-trifluoro-2-hydroxypropyl]-4,5-dihydro-1H-1,2,4-triazol-1-yl}methyl)-5-[(1,1-dioxidothiomorpholin-4-yl)carbonyl]-1H-1,2,4-triazol-1-yl}-N-(1-methylcyclopropyl)pyridine-3-carboxamide], the IC50 at human V2 receptor amounted to 2850 nM. In addition, at human V1a receptor, the IC50 was 96.5 nM and the “ratio IC50 hV2/hV1a” value came out at 29.5.
For `CC(C)(N)CNC(=O)c1nc(Cn2nc(-c3ccc(Cl)cc3)n(C[C@H](O)C(F)(F)F)c2=O)nn1-c1cnccc1C(=O)NCC(F)(F)F` [Example 534, 3-{5-[(2-Amino-2-methylpropyl)carbamoyl]-3-({3-(4-chlorophenyl)-5-oxo-4-[(2S)-3,3,3-trifluoro-2-hydroxypropyl]-4,5-dihydro-1H-1,2,4-triazol-1-yl}methyl)-1H-1,2,4-triazol-1-yl}-N-(2,2,2-trifluoroethyl)pyridine-4-carboxamide], the half-inhibitory concentration (IC50) on human V2 receptor stood at 3620 nM. In addition, on human V1a receptor, the IC50 was determined as 180 nM and the “ratio IC50 hV2/hV1a” value was determined as 20.1.
